We go through 18 compounds from patent publication US8957093B2, “N-biphenylmethylindole modulators of PPARG” (The Scripps Research Institute, priority 2011, dated 2015).

The EC50 is the concentration at which the effect is half-maximal. Usually IC50 stands for the concentration at which inhibition is half-maximal.

Test [1] relates to PPARG (murine PPARg2 or full-length human PPARG, 3xPPRE-luciferase reporter). Nature of the test: Cell-based PPRE-luciferase transactivation assay in COS-1 cells. To be noted: for EC50: PPRE-luciferase, COS-1 cells, NA = not active, read-out: EC50 (nM) PPRE; for PPRE transactivation (% in parentheses): rosiglitazone = 100%. As for the experimental part:
Cell-Based Transactivation Assay:
PPRE is a DNA that contains a binding site for PPARG; thus PPRE is a PPAR response element, used herein as a promoter reporter. The binding site is a DR1 response element with the sequence AGGTCA repeated 3 times in tandem and then fused to a construct for luciferase.
Thus, PPRE is the basis of the cell based transactivation assay described below. The plasmid DNA is co-transfected along with a plasmid for PPARG into COS-1 cells. After an overnight incubation, cells are treated with DMSO or compounds.
Confluent COS-1 cells were transfected with 4.5 μg murine PPARg2-pSV Sport or full-length human PPAR9-pSport6, 4.5 μg 3×PPRE-luciferase reporter and 27 μL X-treme Gene 9 transfection reagent in serum-free opti-mem media (Gibco), followed by overnight incubation at 37° C., 5% CO2. Transfected cells were plated in white Perkin Elmer 384-well plates and incubated 4 hours. […] After 18 hour incubation, treated cells were developed with Brite Lite Plus (Perkin Elmer) and read in 384-well Luminescence Perkin Elmer EnVision Multilabel plate reader. Graphs were plotted in triplicate in GraphPad Prism Software as fold change of treated cells over DMSO control cells.

For test [2], the target named is GST-PPARG-LBD (Homo sapiens (Human), UniProt P37231). Nature of the test: Lanthascreen PPARG competitive binding assay (Invitrogen, TR-FRET). To be noted: Lanthascreen competitive binding; NA = not active; inc = incomplete curve; read-out: IC50 (nM) Lantha. Summed up: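 TR-FRET competitive binding of GST-PPARG-LBD with 5 nM Tb-GST-antibody and 5 nM Fluormone Pan-PPAR Green tracer, in TR-FRET buffer C. Compound serially diluted from 10 μM, 2 h dark incubation, in triplicate. Readout is 520/490 nm emission ratio (340 nm excitation), expressed as fold change over 2% DMSO control.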
GST-PPARG-LBD, sequence (P37231 238-503): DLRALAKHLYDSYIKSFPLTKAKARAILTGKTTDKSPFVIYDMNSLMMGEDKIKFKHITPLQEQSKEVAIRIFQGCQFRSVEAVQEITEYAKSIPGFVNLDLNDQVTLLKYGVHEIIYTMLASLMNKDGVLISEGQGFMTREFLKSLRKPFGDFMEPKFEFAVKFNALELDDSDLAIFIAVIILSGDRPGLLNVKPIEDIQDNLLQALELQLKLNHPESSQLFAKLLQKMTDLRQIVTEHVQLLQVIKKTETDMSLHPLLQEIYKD
On the technique in general: Time-resolved FRET reads energy transfer from a long-lived donor to a nearby acceptor.

In the case of `Cc1c(C)n(Cc2ccc(-c3ccccc3C(=O)O)cc2)c2ccc(C(=O)NCc3ccc(-c4ccccc4)cc3)cc12` [Example 102, 4′-((5-(biphenyl-4-ylmethylcarbamoyl)-2,3-dimethyl-1H-indol-1-yl)methyl)biphenyl-2-carboxylic acid], in test [1], the EC50 was found to be 1.2 nM and the “PPRE transactivation (% in parentheses)” value is on record as “(29%)”. In addition, in test [2], the IC50 was found to be 247 nM.

With `Cc1c(C)n(Cc2ccc(-c3ccccc3C(=O)O)cc2)c2ccc(C(=O)NCc3ccccc3Cl)cc12` [Example 108, 4′-((5-(2-chlorobenzylcarbamoyl)-2,3-dimethyl-1H-indol-1-yl)methyl)biphenyl-2-carboxylic acid], in test [1], the EC50 stood at 535 nM and the “PPRE transactivation (% in parentheses)” value is recorded as “(15%)”. Moreover, the IC50 in test [2] is 6 nM.

As for `Cc1c(C)n(Cc2ccc(-c3ccccc3C(=O)O)cc2)c2ccc(C(=O)NCc3cccc(Cl)c3)cc12` [Example 109, 4′-((5-(3-chlorobenzylcarbamoyl)-2,3-dimethyl-1H-indol-1-yl)methyl)biphenyl-2-carboxylic acid], in test [1], the EC50 worked out at 12 nM and the “PPRE transactivation (% in parentheses)” value was “(21%)”. Besides, the IC50 in test [2] was determined as 2 nM.

`CCC[C@H](NC(=O)c1ccc2c(c1)c(C)c(C)n2Cc1ccc(-c2ccccc2C(=O)O)cc1)c1ccccc1` [Example 114, (S)-4′-((2,3-dimethyl-5-(1-phenylbutylcarbamoyl)-1H-indol-1-yl)methyl)biphenyl-2-carboxylic acid]: in test [1], the EC50 was determined as 8 nM and the “PPRE transactivation (% in parentheses)” value is “(14%)”. Moreover, in test [2], the IC50 came out at 0.8 nM.

Take `Cc1c(C)n(Cc2ccc(-c3ccccc3C(=O)O)cc2)c2ccc(C(=O)NC(C)c3cccc4ccccc34)cc12` (stereo not drawn) [Example 116, 4′-((2,3-dimethyl-5-(1-(naphthalen-1-yl)ethylcarbamoyl)-1H-indol-1-yl)methyl)biphenyl-2-carboxylic acid]: in test [1], the EC50 amounted to 5 nM and the “PPRE transactivation (% in parentheses)” value is “(16%)”. Further, the IC50 in test [2] came to 2 nM.

Consider `Cc1c(C)n(Cc2ccc(-c3ccccc3C(=O)O)cc2)c2ccc(C(=O)NC(C)CCc3ccccc3)cc12` (stereo not drawn) [Example 117, 4′-((2,3-dimethyl-5-(4-phenylbutan-2-ylcarbamoyl)-1H-indol-1-yl)methyl)biphenyl-2-carboxylic acid], for which, in test [1], the EC50 is 3 nM and the “PPRE transactivation (% in parentheses)” value is “(17%)”. In addition, the IC50 in test [2] was 3 nM.

For the compound `Cc1c(C)n(Cc2ccc(-c3ccccc3C(=O)O)cc2)c2ccc(C(=O)NCc3ccccc3Br)cc12` [Example 118, 4′-((5-((2-Bromobenzyl)carbamoyl)-2,3-dimethyl-1H-indol-1-yl)methyl)-[1,1′-biphenyl]-2-carboxylic acid], in test [1], the EC50 was 86 nM and the “PPRE transactivation (% in parentheses)” value was “(8%)”. For the same compound, the IC50 in test [2] amounted to 17 nM.

Take `C[C@H](NC(=O)c1ccc2c(ccn2Cc2ccc(-c3ccccc3C(=O)O)cc2)c1)c1ccc(Br)cc1` [Example 130, (S)-4′-((5-((1-(4-Bromophenyl)ethyl)carbamoyl)-1H-indol-1-yl)methyl)-[1,1′-biphenyl]-2-carboxylic acid]: in test [1], the “PPRE transactivation (% in parentheses)” value is on record as “(0%)”. Moreover, the IC50 in test [2] came out at 163 nM.

On to `CCC(NC(=O)c1ccc2c(ccn2Cc2ccc(-c3ccccc3C(=O)O)cc2)c1)c1ccccc1` (stereo not drawn) [Example 131, 4′-((5-((1-Phenylpropyl)carbamoyl)-1H-indol-1-yl)methyl)-[1,1′-biphenyl]-2-carboxylic acid], for which, in test [1], the EC50 was 6 nM and the “PPRE transactivation (% in parentheses)” value was “(20%)”. Further, the IC50 in test [2] was 6 nM.

For `Cc1cc2cc(C(=O)N[C@@H](C)c3ccc(Br)cc3)ccc2n1Cc1ccc(-c2ccccc2C(=O)O)cc1` [Example 135, (S)-4′-((5-((1-(4-Bromophenyl)ethyl)carbamoyl)-2-methyl-1H-indol-1-yl)methyl)-[1,1′-biphenyl]-2-carboxylic acid], the “PPRE transactivation (% in parentheses)” value in test [1] is “(0%)”. Moreover, in test [2], the IC50 worked out at 80 nM.

Consider `Cc1c(C)n(Cc2ccc(-c3ccccc3C(=O)O)cc2)c2ccc(C(=O)N[C@@H]3COc4ccccc4C3)cc12` [Example 250, (S)-4′-((5-(chroman-3-ylcarbamoyl)-2,3-dimethyl-1H-indol-1-yl)methyl)-[1,1′-biphenyl]-2-carboxylic acid], for which the “PPRE transactivation (% in parentheses)” value in test [1] is listed as “(0%)”. In addition, the IC50 in test [2] was determined as 88 nM.

In the case of `Cc1c(C)n(Cc2ccc(-c3ccccc3C(=O)O)cc2)c2ccc(C(=O)NCc3cccc(S(C)(=O)=O)c3)cc12` [compound 4, 4′-((2,3-Dimethyl-5-(3-(methylsulfonyl)benzylcarbamoyl)-1H-indol-1-yl)methyl)biphenyl-2-carboxylic acid], the “PPRE transactivation (% in parentheses)” value in test [1] is given as “(0%)”. For the same compound, the IC50 in test [2] amounted to 230 nM.

As for `Cc1c(C)n(Cc2ccc(-c3ccccc3C(=O)O)cc2)c2ccc(C(=O)NCc3cccc(OC(F)(F)F)c3)cc12` [compound 5, 4′-((2,3-Dimethyl-5-(3-(trifluoromethoxy)benzylcarbamoyl)-1H-indol-1-yl)methyl)biphenyl-2-carboxylic acid], the “PPRE transactivation (% in parentheses)” value in test [1] is “(0%)”. For the same compound, the IC50 in test [2] turned out to be 157 nM.

For `Cc1c(C)n(Cc2ccc(-c3ccccc3C(=O)O)cc2)c2ccc(C(=O)NCc3ccc(I)cc3)cc12` [compound 7, 4′-((5-(4-Iodobenzylcarbamoyl)-2,3-dimethyl-1H-indol-1-yl)methyl)biphenyl-2-carboxylic acid], in test [1], the EC50 is 19 nM and the “PPRE transactivation (% in parentheses)” value is reported as “(23%)”. The IC50 in test [2] was 4 nM.

For `Cc1c(C)n(Cc2ccc(-c3ccccc3C(=O)O)cc2)c2ccc(C(=O)NCc3ccc(C#N)cc3)cc12` [compound 8, 4′-((5-(4-Cyanobenzylcarbamoyl)-2,3-dimethyl-1H-indol-1-yl)methyl)biphenyl-2-carboxylic acid], in test [1], the EC50 was found to be 9000 nM and the “PPRE transactivation (% in parentheses)” value is reported as “(12%)”. In test [2], the IC50 was determined as 34 nM.

For the compound `Cc1c(C)n(Cc2ccc(-c3ccccc3C(=O)O)cc2)c2ccc(C(=O)NCc3ccc(C(C)C)cc3)cc12` [compound 9, 4′-((5-(4-Isopropylbenzylcarbamoyl)-2,3-dimethyl-1H-indol-1-yl)methyl)biphenyl-2-carboxylic acid], in test [1], the EC50 turned out to be 7 nM and the “PPRE transactivation (% in parentheses)” value was “(18%)”. Further, the IC50 in test [2] came to 23 nM.

Take `Cc1c(C)n(Cc2ccc(-c3ccccc3C(=O)O)cc2)c2ccc(C(=O)NCc3ccc(S(C)(=O)=O)cc3)cc12` [compound 10, 4′-((2,3-Dimethyl-5-(4-(methylsulfonyl)benzylcarbamoyl)-1H-indol-1-yl)methyl)biphenyl-2-carboxylic acid]: the “PPRE transactivation (% in parentheses)” value in test [1] is on record as “(0%)”. In test [2], the 50% inhibitory concentration (IC50) amounted to 553 nM.

Regarding `Cc1c(C)n(Cc2ccc(-c3ccccc3C(=O)O)cc2)c2ccc(C(=O)NCc3ccc(N(C)C)cc3)cc12` [compound 11, 4′-((5-(4-(Dimethylamino)benzylcarbamoyl)-2,3-dimethyl-1H-indol-1-yl)methyl)biphenyl-2-carboxylic acid], in test [1], the EC50 worked out at 154 nM and the “PPRE transactivation (% in parentheses)” value is on record as “(29%)”. The IC50 in test [2] is 13 nM.
